# From US11235074B2, “Contrast agents for magnetic resonance imaging” (Duke University, priority 2015, dated 2022)
# Where two headings read alike, the source gives them in different places.
# Legend:
# [1] = system: brain of normal C57 black mouse; experiment: In vivo ascorbate T2 contrast changes in normal mouse brain; details: 2 g/kg i.v., normal C57 mice, FIG. 9B
# Procedure: Color-lute maps of signal intensity are not subtracted from the pre-dose scan and therefore show the expected decreases in T2 signal over time, maximized between 30-60 min in normal C57 mice.
# [2] = In vitro phantom quantitative T2 mapping (spin-spin relaxation MRI contrast) at 7 T
# Procedure: Data are provided from quantitative T2 mapping at 7 T using a RARE FSE protocol with at least 6 different echo times, at solute concentrations of 10 and 20 mM.
# [3] = cited from earlier work
# [4] = cited from earlier work; remark: listed apart in the source
# [5] = cited from earlier work; remark: listed apart in the source
# [6] = system: whole brains of guinea pigs; experiment: T2 contrast changes in guinea pig brain after i.v. ascorbate formulations, 7 T; type: in vivo; details: 2 g/kg i.v. over 60 minutes, nearly every time point
# Procedure: MRI was performed for 90 minutes.
compound,measurement,setting,value
"O=C1O[C@H]([C@@H](O)CO)C(O)=C1O [ascorbate, L-ascorbic acid]",time of maximal decrease in T2 signal,[1],30 to 60 min
same,change in T2 relaxation,"[2]; 10 mM ascorbate with physiological glucose (5 mM) or HCO3- (25 mM), FIG. 5",50%
same,pH at which T2 effect is maximized,[2]; FIG. 3C,7.0-7.4
same,lowest concentration with statistically significant negative T2 contrast (signal loss),"[2]; vs phosphate-buffered saline control, conventional FSE acquisition, FIG. 3A",1 to 5 mM
same,pKA,[3]; disproportionation reaction at equilibrium,7.0
same,pKA,[3]; hydroxyl group at the 4 position,6.75
same,fraction present as the mono anion,[3]; physiological pH (7.4),99%
same,H2O2 concentration in brain and tumors in vivo following parenteral ascorbate,[4]; brain and tumors,100 to 200 µM
same,intracellular concentration,"[4]; tumors, brain cells and some other tissues",10 to 30 mM
same,plasma concentration achievable,[5]; administered intravenously,≥ 10000 µM
same,plasma concentration,"[5]; oral ascorbate, doses more than 100 times the recommended daily allowance",≤ 200 µM
same,excretion half-life,[5]; urinary excretion of concentrations over the renal re-absorption threshold,about 30 minutes
meglumine ascorbate,"FSE T2 weighted signal intensity changes, comparison between formulations",[6],greater than those observed with sodium ascorbate (1)
same,T2 contrast effect (T2 relaxation in ms) relative to meglumine or ascorbate alone,"[2]; water, neutral pH, FIG. 3D",approximately 4 times
